What all share (type): functional
For one assay, the system named is KB. The assay is described as follows: Cytotoxicity against human KB cells. The following applies: for EC50: Homo sapiens, KB, read-out: ED50 (the source's name).
Assay [1] deals with P388. The assay is described as follows: In vivo antileukemic activity against mouse P388 cells at 4 mg/kg.
The test system of assay [2] is P388. The assay is described as follows: In vivo antileukemic activity against mouse P388 cells at 32 mg/kg.
Assay [3] relates to P388. The assay can be described thus: In vivo antileukemic activity against mouse P388 cells at 8 mg/kg.
The test system of assay [4] is P388. The assay can be described thus: In vivo antileukemic activity against mouse P388 cells at 16 mg/kg.

Values after ≈ are worked out from the molar mass of the structure shown.

This note sets out measurements from ChEMBL document CHEMBL1145670, “Additional New Maytansinoids from Trewia nudiflora: 10-Epitrewiasine and Nortrewiasine” (1983).

As for `COc1cc2cc(c1Cl)N1CC(=O)C(C)(O)C(=O)N(C)C(C)C(=O)O[C@@H](CC1=O)[C@]1(C)O[C@H]1[C@H](C)[C@@H]1C[C@@](O)(NC(=O)O1)[C@H](OC)/C=C/C=C(\C)C2OC` (stereo partly drawn), in the assay with KB, the EC50 was < 0.01 µg/mL. In the assay on P388 [1], this compound showed a T/C of 153%.
Take `COc1cc2cc(c1Cl)N(C)C(=O)C[C@H](OC(=O)[C@H](C)N(C)C(=O)C(C)C)[C@]1(C)O[C@H]1[C@H](C)[C@@H]1C[C@@](O)(NC(=O)O1)[C@H](OC)/C=C/C=C(\C)C2O` (stereo partly drawn) [COLUBRINOL]: the EC50 in the assay with KB was < 0.001 µg/mL. For the same compound, the T/C in the assay with P388 [2] came to 159%.
In the assay with KB, `COc1cc2cc(c1Cl)N1CC(O)C(C)(O)C(=O)NC(C)C(=O)O[C@@H](CC1=O)[C@]1(C)O[C@H]1[C@H](C)[C@@H]1C[C@@](O)(NC(=O)O1)[C@H](OC)/C=C/C=C(\C)C2OC` (stereo partly drawn) [TRENUDINE] registered an ED50 of 6.4 ×10⁻⁴ ug/ml. In the assay with P388 [3], this compound displayed a T/C of 146%.
With `COc1cc2cc(c1Cl)N(C)C(=O)C[C@H](OC(=O)[C@H](C)N(C)C(=O)C(C)C)[C@]1(C)O[C@H]1[C@H](C)[C@@H]1C[C@@](O)(NC(=O)O1)[C@@H](OC)/C=C/C=C(\C)C2OC` (stereo partly drawn), the EC50 with KB was < 0.001 µg/mL. For the same compound, the T/C in the assay on P388 [2] is on record as 131%.
Consider `COc1cc2cc(c1Cl)NC(=O)C[C@H](OC(=O)[C@H](C)N(C)C(=O)C(C)C)[C@]1(C)O[C@H]1[C@H](C)[C@@H]1C[C@@](O)(NC(=O)O1)[C@H](OC)/C=C/C=C(\C)C2OC` (stereo partly drawn) [NORTREWIASINE], for which the ED50 in the assay on KB is given as <1 ×10⁻⁴ ug/ml. The compound also showed a T/C with P388 [4] of 155%.
In the case of `COc1cc2cc(c1Cl)N(C)C(=O)C[C@H](OC(=O)[C@H](C)NC(=O)C(C)C)[C@]1(C)O[C@H]1[C@H](C)[C@@H]1C[C@@](O)(NC(=O)O1)[C@H](OC)/C=C/C=C(\C)C2OC` (stereo partly drawn) [DEMETHYLTREWIASINE], the EC50 in the assay with KB is 0.049 µg/mL (≈ 0.0666 µM). The same compound came in with a T/C with P388 [3] of 159%.
`COc1cc2cc(c1Cl)N1CCC(C)(O)C(=O)NC(C)C(=O)O[C@@H](CC1=O)[C@]1(C)O[C@H]1[C@H](C)[C@@H]1C[C@@](O)(NC(=O)O1)[C@H](OC)/C=C/C=C(\C)C2OC` (stereo partly drawn) [TREFLORINE]: the ED50 in the assay on KB is 2.7 ×10⁻⁴ ug/ml. The T/C with P388 [4] is 157%.
For `C=C(C)C(=O)N(C)[C@@H](C)C(=O)O[C@H]1CC(=O)N(C)c2cc(cc(OC)c2Cl)C(OC)/C(C)=C/C=C/[C@@H](OC)[C@@]2(O)C[C@H](OC(=O)N2)[C@@H](C)[C@@H]2O[C@@]12C` (stereo partly drawn) [DEHYDROTREWIASINE], in the assay on KB, the EC50 was < 0.01 µg/mL. The compound also returned a T/C with P388 [3] of 172%.
Consider `COc1cc2cc(c1Cl)N(C)C(=O)C[C@H](OC(=O)[C@H](C)N(C)C(=O)C(C)C)[C@]1(C)O[C@H]1[C@H](C)[C@@H]1C[C@@](O)(NC(=O)O1)[C@H](OC)/C=C/C=C(\C)C2OC` (stereo partly drawn) [TREWIASINE], for which, in the assay on KB, the ED50 was 2 ×10⁻⁴ ug/ml. Further, the T/C in the assay on P388 [4] came out at 154%.

The term T/C denotes the result in the treated group divided by that in the control group, in per cent.
